# Results reported in BindingDB's records for doi:10.1002/cbic.201100587 (2012).
# Molecular target: Glutamine--fructose-6-phosphate transaminase (isomerizing) (Saccharomyces cerevisiae (strain YJM789), UniProt A6ZZL3)
# Test: Inhibition Assay
# Source text: The inhibition assay was followed under standard conditions with saturating concentrations of both substrates to determine the IC50 values.
# Sequence of Glutamine--fructose-6-phosphate transaminase (isomerizing) (A6ZZL3 whole entry): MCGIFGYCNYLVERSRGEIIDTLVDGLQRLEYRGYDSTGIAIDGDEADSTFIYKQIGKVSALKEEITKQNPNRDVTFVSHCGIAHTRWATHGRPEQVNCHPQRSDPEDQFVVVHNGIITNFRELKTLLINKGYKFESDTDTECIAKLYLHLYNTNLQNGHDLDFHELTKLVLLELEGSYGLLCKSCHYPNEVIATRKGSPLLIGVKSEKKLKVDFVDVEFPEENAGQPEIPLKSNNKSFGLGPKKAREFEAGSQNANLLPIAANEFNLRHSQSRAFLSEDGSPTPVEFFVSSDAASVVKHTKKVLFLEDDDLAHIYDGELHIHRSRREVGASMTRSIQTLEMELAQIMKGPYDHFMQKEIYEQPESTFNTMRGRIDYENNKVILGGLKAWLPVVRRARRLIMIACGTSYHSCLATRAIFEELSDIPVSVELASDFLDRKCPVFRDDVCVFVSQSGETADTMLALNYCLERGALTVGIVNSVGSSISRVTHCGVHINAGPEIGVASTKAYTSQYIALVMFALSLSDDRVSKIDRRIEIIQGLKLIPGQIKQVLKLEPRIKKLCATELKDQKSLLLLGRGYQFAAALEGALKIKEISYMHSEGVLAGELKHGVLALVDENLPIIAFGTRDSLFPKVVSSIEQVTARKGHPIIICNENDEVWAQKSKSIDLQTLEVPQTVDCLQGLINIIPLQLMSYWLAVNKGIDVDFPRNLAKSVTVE
SMILES,IC50 [mM],Ki [mM]
"N[C@@H](CNC(=O)[C@@H]1O[C@H]1C(=O)c1ccccc1)C(=O)O [N3-Oxoacyl derivative, 1]",0.66,0.45
"CC(=O)[C@@H]1O[C@H]1C(=O)NC[C@H](N)C(=O)O [N3-Oxoacyl derivative, 2]",7.35,19.4
"N[C@@H](CNC(=O)/C=C/C(=O)c1ccccc1)C(=O)O [N3-Oxoacyl derivative, 3]",0.27,0.0565
"CC(=O)C=CC(=O)NC[C@H](N)C(=O)O [N3-Oxoacyl derivative, 4]",5.6,15.2
